Measurements taken from patent publication US20040062800A1, “Sustained release pharmaceutical dosage forms with minimized ph dependent dissolution profiles” (priority 2000, published 2004).
Structures can show the parent of a compound that is named as a salt.

Assay: physchem
Type: physicochemical
Details: 25 °C
Description: Below pH 3, the solubility increased as the pH decreased which is consistent with formation of a more soluble protonated form. […] Above pH 4, the solubility was independent of pH and remained constant (ca. 1.2 mcg/mL) up to pH 8. Above pH 8, the solubility increased with increasing pH which is due to the ionization of the quinazoline moiety.

solubility (aqueous buffer): ~1.2 µg/mL
solubility (pH 0.96, simulated gastric fluid): 236 µg/mL
solubility (pH 11.4, aqueous buffer): 992 µg/mL
Structure (SMILES): O=C1CN2Cc3c(ccc(Cl)c3Cl)N=C2N1 [anagrelide HCl]
